Source: patent US20030144174A1, “METHODS FOR IDENTIFYING COMPOUNDS USEFUL FOR THE REGULATION OF BODY WEIGHT AND ASSOCIATED CONDITIONS” (priority 1998, published 2003)
Entries after “also recorded” stand apart in the source; their conditions may differ.

What was measured:
Format in all cases: in vivo, mouse
[1] = test system: POMC homozygous mutant female mice; test: Daily intraperitoneal α-MSH analog in POMC homozygous mutant mice: body weight, food intake, coat (Example 2)
Description: (§1) To test initially for the effect of peripheral melanocortins on weight change, we selected the stable agonist [Ac-Cys^4, D-Phe^7, Cys^10] α-MSH (4-13) (described in Cody et al., 1985, J. Med. Chem. 28, 583-588; incorporated herein by reference in its entirety). Briefly, [Ac-Cys^4,D-Phe^7, Cys^10] α-MSH (4-13) amide, having the cysteines connected by a disulfide bridge, was obtained from Peninsula Laboratories, CA. Lyophilized powder was dissolved in water at 1 mg/ml, which was diluted in PBS to 10 μg/mL. During the experiments, mice were maintained on a normal 12 h/12 h light/dark cycle with food and water ad libitum. Mice were fed standard laboratory rodent diet (#5001).
(§2) In order to see whether the α-MSH analog has an effect on food intake, we compared weight change and food intake in these mice for one week (see bars in FIGS. 4A and 4B) under MSH analog treatment and after MSH analog treatment was stopped (FIGS. 4C and 4D). During one week under MSH analog treatment mutant mice lost 0.5 g, while wildtype littermates gained 0.3 g; the food intake during this time was equivalent in both groups (20.7 g in wildtypes, and 22.7 g in mutants).
An effect of MSH could also be seen on coat pigmentation. […] Yellow coat pigmentation gradually reappeared after MSH treatment was terminated (data not shown).

wildtype female mice = test: Daily intraperitoneal α-MSH analog in wildtype littermates: body weight, food intake (Example 2); conditions: for weight loss in wildtype littermates: 1 microgram i.p. daily, 16-day treatment
Description: as §1, §2

POMC null mutant mice = test: Weight change and food intake by diet and MSH analog treatment, POMC null mutant mice (Example 3, Table 1)
Description: (§3) P values were determined by ANOVA. If the major component of weight regulation through the melanocortinergic pathway was the regulation of feeding behavior, the observed changes in body weight in POMC null mutant mice should be paralleled by a similar pattern in food uptake. This, however, was not observed (FIGS. 5B and 5D and Table 1).

wildtype mice = test: Weight change and food intake by diet and MSH analog treatment, wildtype mice (Example 3, Table 1); conditions: MSH analog i.p. 1 or 2 μg once daily
Description: as §3

obese lep^ob/ob mice = test: Total weight change in obese lep ob/ob mice given leptin, α-MSH analog or both (Example 4, FIG. 6); conditions: 3 μg of each compound i.p. once daily; lep ob/ob mice aged 2 months; compared to untreated controls
Description: To assess a more general effect of peripheral melanocortin on adipocytes, another genetic form of obesity, in lep^ob/ob mice, was treated with the α-MSH analog. In this experiment, the mice received leptin or the α-MSH analog alone, and in combination. Briefly, obese lep^ob/ob mice at age 2 months (2 per group) received daily either: (1) 3 μg of α-MSH analog (described in Examples 2 and 3 above); (2) 3 μg of recombinant mouse leptin; (3) 3 μg of α-MSH analog and 3 μg of recombinant mouse leptin in combination; or (4) saline. The compounds were delivered intraperitoneally once daily, 1-2 hours before the onset of darkness.

ob/ob mutants [2] = test: Weight gain and food intake in ob/ob mutants given leptin, MSH analog or both (Example 5, FIGS. 8 and 9)
Description: Leptin deficient (ob/ob) mutants show both hyperphagia and “increased metabolic efficiency” as witnessed by their ability to gain weight even when pair-fed with normal congenic controls. To determine the effects of leptin and MSH on food intake and weight gain, four sets of ob/ob mutants were treated with leptin, an MSH analog, both together, or vehicle alone. The MSH analog [Ac-Cys^4, D-Phe^7, Cys^10] α-MSH (4-13) was purchased from Peninsula Laboratories (Belmont, Calif.). Mice were treated with daily injections of 7 micrograms of each, both or neither.

ob/ob mutants [3] = test: Core temperature of ob/ob mutants exposed to 4° C. (Example 5, FIG. 10); conditions: 7 micrograms; 5 hours without food, then 4° C. for 65 minutes; versus vehicle treated ob/ob
Description: In 1977, the decreased ability of ob/ob mutants to maintain body temperature at 4° C. was noted. This preceded the onset of obesity in these mice. In view of the evidence that MSH regulates adipocyte metabolism, the present inventors hypothesized that the low levels of circulating MSH in leptin deficient (ob/ob) mutants was responsible for the impaired thermal regulation. To test this, ob/ob mutants were injected with 7 micrograms of MSH analog or vehicle only as described above. The mice were left without food for 5 hours and then exposed to 4° C. for 65 minutes. Their core temperatures were measured periodically by transfer to a coldroom (4° C.) where core temperatures were measured using a digital thermometer fitted with a rectal probe (Atkins Technical Inc., Gainesville, Fla.). […] As the mice had no opportunity to eat between injection of the MSH analog and the cold challenge, food intake cannot be responsible for the altered thermal regulation.

[4] = test system: ob/ob mutant mice (C57BL/6J-Lep^ob); test: Circulating MSH levels by RIA in ob/ob mutants treated with leptin (Example 5, FIG. 7); conditions: leptin 7 microgram/day i.p., two hours after the tenth daily injection
Description: To test the inductive ability of leptin on circulating MSH levels, ob/ob mutants (ob/ob mutant mice (C57BL/6J-Lep^ob) and congenic controls were purchased from the Jackson Laboratory, Bar Harbor, Me.) were treated with leptin (7 microgram/day) or with vehicle alone (Murine recombinant leptin was kindly provided by Dr. A. F. Parlow through the National Hormone and Pituitary Program (NHPP); hormones were diluted to 70 micrograms per milliliter in PBS; mice were injected intraperitoneally with 0.1 mL). Two hours after the tenth daily injection, blood samples were drawn from the retro-orbital sinus and analyzed for MSH levels by RIA following the manufacturer's instructions (Peninsula Laboratories, Belmont, Calif.).

[5] = both genotypes on standard diet & MSH analog treatment
[6] = mutant mice, MSH analog i.p. 1 or 2 μg once daily
[7] = daily injections of 7 micrograms, ob/ob mutants

[Ac-Cys^4, D-Phe^7, Cys^10] α-MSH (4-13) [MSH analog]
weight loss by 2 weeks ([1]; 1 microgram (~1 nmol) i.p. daily, mutant female mice, listed as MSH-agonist): 46 % of excess weight
weight loss by 2 weeks ([1]; 1 microgram (~1 nmol) i.p. daily, mutant female mice, listed as stable α-MSH agonist): over 40 % of excess weight
weight loss within one week ([1]; 1 microgram (~1 nmol) i.p. daily, mutant female mice, within one week): 38 % of excess weight
time until mutant mice started to gain weight after MSH injections were stopped ([1]; after the 16-day treatment ended): about 10 days
coat pigmentation ([1]; mice treated for two weeks): lost their yellowish tinge
weight lost during one week under MSH analog treatment ([1]; mutant mice, second week of treatment): 0.5 g
weight gained in one week after MSH analog treatment had been stopped for two weeks ([1]; mutant mice, third week after termination): 1.7 g
food intake during one week under MSH analog treatment ([1]; mutants, second week of treatment): 22.7 g
food intake in one week after MSH analog treatment had been stopped for two weeks ([1]; mutants, third week after termination): 35.7 g
weight loss in wildtype littermates (wildtype female mice; listed as MSH-agonist): no significant weight loss
weight loss in wildtype littermates (wildtype female mice; listed as stable α-MSH agonist): did not lose significant weight
weight gained during one week under MSH analog treatment (wildtype female mice; wildtype littermates, second week of treatment): 0.3 g
weight gain in one week after MSH analog treatment had been stopped for two weeks (wildtype female mice; wildtype littermates, third week after termination): 0.3 g
food intake during one week under MSH analog treatment (wildtype female mice; wildtypes, second week of treatment): 20.7 g
food intake in one week after MSH analog treatment had been stopped for two weeks (wildtype female mice; wildtypes, third week after termination): 24.2 g
food intake, wildtype v. mutant (POMC null mutant mice; [5]): ↑
weight change, wildtype v. mutant (POMC null mutant mice; [5]): ↓
food intake, standard diet v. standard diet & MSH analog treatment (POMC null mutant mice; [6]): decreases food intake and ↓
weight change, standard diet v. standard diet & MSH analog treatment (POMC null mutant mice; [6]): lose excess weight and ↓
food intake, standard diet v. standard diet & MSH analog treatment (wildtype mice): decreases food intake and ↓
weight change, standard diet v. standard diet & MSH analog treatment (wildtype mice): completely capable of maintaining their body weight constant and ←→
total weight change over a period of 10 days (obese lep^ob/ob mice): slowed weight gain by almost half
supplementing the weight reducing effect of leptin (ob/ob mutants [2]; MSH analog together with a leptin dose sufficient to induce normal MSH levels, ob/ob mice): inability of peripheral MSH analog to supplement the weight reducing effect
effect on weight gain compared with effect on food intake (ob/ob mutants [2]; [7]): greater on weight gain than on food intake
weight gain (ob/ob mutants [2]; [7]): effectively decreased weight gain; also recorded: decreases weight gain
core temperature during exposure to 4° C. (ob/ob mutants [3]): maintained their core temperature much better; also recorded: increases thermal homeostasis

B1: leptin: recombinant mouse leptin, product of the ob gene; Example 5 material provided through the NHPP (protein, UniProt P41160 22-167, looked up)
Leptin: VPIQKVQDDTKTLIKTIVTRINDISHTQSVSAKQRVTGLDFIPGLHPILSLSKMDQTLAVYQQVLTSLPSQNVLQIANDLENLRDLLHLLAFSKSCSLPQTSGLQKPESLDGVLEASLYSTEVVALSRLQGSLQDILQQLDVSPEC
total weight change over a period of 10 days (obese lep^ob/ob mice): little effect on preventing further weight gain
circulating MSH levels [4]: approached those found in normal control mice; also recorded: induces almost normal levels of circulating MSH
weight gain (ob/ob mutants [2]; [7]): effectively decreased weight gain
